According to patent US10334845B2, “Olfactory ligands” (University College Cardiff Consultants Limited, priority 2015, dated 2019):
Values joined by “and” are separate entries in the source; they are usually repeats but may differ in a detail not shown here. Equal values may be shown once.

Assays:
[1] = test system: grain aphids, Sitobion avenae; assay: Behavioural assay, four-arm olfactometer; format: in vivo; conditions: for Time spent in control arms (mean of 3) / Time spent in treatment arm: mean (SE), 16 min, 10 replicates; for Insect repellent / attractant activity (in words): summary statement
Protocol: The responses of individual grain aphids, Sitobion avenae, to test compounds were observed using a Perspex four-arm olfactometer (Pettersson, J.; Ent. Scand. 1, 63-73 (1970); Webster, B., et al. Animal Behav. 79, 451-457 (2010)), which was maintained at 23° C. and lit from above. A filter paper disc was laid in the bottom section of the olfactometer to provide traction for the aphid and the middle and top sections were fitted into place very tightly to give a good seal. The four arms, consisting of the barrels of disposable 10 mL syringes (Plastipak), were fitted tightly into the holes of the middle section, and filtered air was drawn through them and into the body of the olfactometer through a tube inserted into a hole in the centre of the top section and attached to a pump. The measured total flow rate was 200 mL/min and it was assumed that the flow rate through each arm was 50 mL/min. The three control arms each contained a filter paper strip to which had been applied 10 µL hexane which had been allowed to evaporate for 30 s. The treatment arm contained a filter paper strip to which the test compound in 10 μL of hexane (20-200 ng μL^−1) had been applied and left for 30 s for the hexane to evaporate. A single aphid was introduced through the central hole and the suction tube quickly reinserted. The time spent in each arm and in the central zone were recorded, using specialist software (OLFA, Udine, Italy), for the next 16 minutes. The olfactometer was rotated through 90° every 2 min to eliminate any directional bias. Each assay comprised 10 replicates and the mean time spent in treated and control arms were compared using a paired t-test (Genstat).
Data were recorded as mean (±SE) time spent in control (solvent only) or treatment arms and were analysed using Students T-test.

[2] = test system: grain aphid (Sitobion avenae); conditions: background statement; cited from earlier work

C=C1/C=C/[C@H](C(C)C)CC/C(C)=C/CC1 [Comparator Compound Ia, (S)-germacrene D]
Time spent in control arms (mean of 3) ([1]; dose 0.2 μg): 2.31 (0.26) min | Time spent in treatment arm ([1]; dose 0.2 μg): 1.14 (0.25) min | Time spent in treatment arm ([1]; dose 1.0 μg): 1.63 (0.35) min | Time spent in control arms (mean of 3) ([1]; dose 2.0 μg): 2.29 (0.41) min | Time spent in treatment arm ([1]; dose 2.0 μg): 0.50 (0.14) min

C=C1C=C[C@H](C(C)CC)CCC(C)=CCC1 (stereo partly drawn) [Comparator Compound Ib, (S)-12-methylgermacrene D]
Time spent in control arms (mean of 3) ([1]; dose 0.9 μg): 2.21 (0.42) min | Time spent in treatment arm ([1]; dose 0.9 μg): 1.20 (0.24) min | Time spent in control arms (mean of 3) ([1]; dose 1.2 μg): 2.66 (0.17) min | Time spent in treatment arm ([1]; dose 1.2 μg): 2.13 (0.25) min

CC=C1C=C[C@H](C(C)C)CCC(CC)=CCC1 [Compound Ig, (S)-14,15-dimethylgermacrene D]
Time spent in control arms (mean of 3) ([1]; dose 0.8 μg): 2.60 (0.22) min | Time spent in treatment arm ([1]; dose 0.8 μg): 3.38 (0.38) min | Time spent in control arms (mean of 3) ([1]; dose 1.0 μg): 2.27 (0.11) min and 2.39 (0.20) min | Time spent in treatment arm ([1]; dose 1.0 μg): 2.77 (0.31) min and 2.97 (0.40) min | Time spent in control arms (mean of 3) ([1]; dose 1.2 μg): 1.96 (0.21) min | Time spent in treatment arm ([1]; dose 1.2 μg): 2.92 (0.23) min | Insect repellent / attractant activity (in words) [1]: strong insect attractant properties

C=C1/C=C/[C@H](C(C)C)CC/C(C)=C/CC1 [Germacrene D]
Insect repellent activity (in words) [2]: repel insects

CC=C1C=C[C@H](C(C)C)CCC(C)=CCC1 [Compound If, (S)-15-methylgermacrene D]
Time spent in control arms (mean of 3) ([1]; dose 0.8 μg): 2.61 (0.26) min | Time spent in treatment arm ([1]; dose 0.8 μg): 1.38 (0.38) min | Time spent in control arms (mean of 3) ([1]; dose 1.0 μg): 2.52 (0.23) min | Time spent in treatment arm ([1]; dose 1.0 μg): 1.92 (0.31) min | Insect repellent / attractant activity (in words) [1]: much greater insect repellent activity

C=C1C=C[C@H](C(C)C)CCC(CC)=CCC1 [Comparator Compound Ic, (S)-14-methylgermacrene D]
Time spent in control arms (mean of 3) ([1]; dose 0.2 μg): 2.21 (0.27) min | Time spent in treatment arm ([1]; dose 0.2 μg): 2.41 (0.73) min | Time spent in control arms (mean of 3) ([1]; dose 1.0 μg): 2.61 (0.28) min | Time spent in treatment arm ([1]; dose 1.0 μg): 3.27 (0.68) min | Time spent in control arms (mean of 3) ([1]; dose 2.0 μg): 2.01 (0.23) min | Time spent in treatment arm ([1]; dose 2.0 μg): 1.65 (0.39) min

C=C1/C=C/[C@@H](C(C)C)CC/C(C)=C/CC1 [III, (R)-germacrene D]
Time spent in control arms (mean of 3) ([1]; dose 1.0 μg): 2.57 (0.19) min | Time spent in treatment arm ([1]; dose 1.0 μg): 3.15 (0.53) min | Time spent in control arms (mean of 3) ([1]; dose 2.0 μg): 1.86 (0.29) min | Time spent in treatment arm ([1]; dose 2.0 μg): 2.65 (0.52) min

CC1CCCC(C)CCC(C(C)C)CC1 (stereo not shown) [IV, germacrane]
Time spent in control arms (mean of 3) ([1]; dose 1.0 μg): 2.45 (0.30) min | Time spent in treatment arm ([1]; dose 1.0 μg): 2.04 (0.58) min | Time spent in control arms (mean of 3) ([1]; dose 2.0 μg): 2.39 (0.24) min | Time spent in treatment arm ([1]; dose 2.0 μg): 2.38 (0.50) min

C=C1C=C[C@H](C(C)C)CCC(C)=C(F)CC1 [Comparator Compound Ih, (S)-1-fluorogermacrene D]
Time spent in control arms (mean of 3) ([1]; dose 1.0 μg): 2.54 (0.27) min | Time spent in treatment arm ([1]; dose 1.0 μg): 2.62 (0.50) min | Time spent in control arms (mean of 3) ([1]; dose 2.0 μg): 2.60 (0.26) min | Time spent in treatment arm ([1]; dose 2.0 μg): 2.46 (0.39) min
